# Values quoted from earlier work as cited in US20220347157A1, “SUSTAINED RELEASE PHARMACEUTICAL COMPOSITIONS COMPRISING (1R, 5S)-1-(NAPHTHALEN-2-YL)-3-AZABICYCLO[3.1.0]HEXANE” (OTSUKA AMERICA PHARMACEUTICAL, INC., priority 2013, published 2022).
# Legend:
# [1] = target: dopamine reuptake (DA) (Homo sapiens, UniProt Q01959); conditions: fraction of the potency towards norepinephrine reuptake
# [2] = target: serotonin reuptake (5-HT) (Homo sapiens, UniProt P31645); conditions: fraction of the potency towards norepinephrine reuptake
# serotonin reuptake (5-HT), sequence (P31645 whole entry): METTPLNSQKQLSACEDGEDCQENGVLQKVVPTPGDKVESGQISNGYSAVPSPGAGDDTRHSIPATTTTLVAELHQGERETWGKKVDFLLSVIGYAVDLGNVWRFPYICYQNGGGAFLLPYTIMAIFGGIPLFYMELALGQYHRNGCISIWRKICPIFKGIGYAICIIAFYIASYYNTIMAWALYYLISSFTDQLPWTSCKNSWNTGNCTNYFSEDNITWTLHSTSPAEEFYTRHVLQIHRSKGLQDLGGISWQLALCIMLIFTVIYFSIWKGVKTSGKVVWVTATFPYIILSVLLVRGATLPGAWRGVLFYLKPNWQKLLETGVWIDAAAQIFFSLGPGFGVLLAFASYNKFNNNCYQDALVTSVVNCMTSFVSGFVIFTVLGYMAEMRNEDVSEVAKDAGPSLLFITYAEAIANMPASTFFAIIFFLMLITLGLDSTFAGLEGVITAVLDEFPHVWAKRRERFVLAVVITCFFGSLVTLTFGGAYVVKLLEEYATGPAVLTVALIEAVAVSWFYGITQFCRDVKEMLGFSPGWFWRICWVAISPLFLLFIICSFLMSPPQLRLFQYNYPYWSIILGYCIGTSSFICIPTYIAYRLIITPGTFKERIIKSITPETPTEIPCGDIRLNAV
# dopamine reuptake (DA), sequence (Q01959 whole entry): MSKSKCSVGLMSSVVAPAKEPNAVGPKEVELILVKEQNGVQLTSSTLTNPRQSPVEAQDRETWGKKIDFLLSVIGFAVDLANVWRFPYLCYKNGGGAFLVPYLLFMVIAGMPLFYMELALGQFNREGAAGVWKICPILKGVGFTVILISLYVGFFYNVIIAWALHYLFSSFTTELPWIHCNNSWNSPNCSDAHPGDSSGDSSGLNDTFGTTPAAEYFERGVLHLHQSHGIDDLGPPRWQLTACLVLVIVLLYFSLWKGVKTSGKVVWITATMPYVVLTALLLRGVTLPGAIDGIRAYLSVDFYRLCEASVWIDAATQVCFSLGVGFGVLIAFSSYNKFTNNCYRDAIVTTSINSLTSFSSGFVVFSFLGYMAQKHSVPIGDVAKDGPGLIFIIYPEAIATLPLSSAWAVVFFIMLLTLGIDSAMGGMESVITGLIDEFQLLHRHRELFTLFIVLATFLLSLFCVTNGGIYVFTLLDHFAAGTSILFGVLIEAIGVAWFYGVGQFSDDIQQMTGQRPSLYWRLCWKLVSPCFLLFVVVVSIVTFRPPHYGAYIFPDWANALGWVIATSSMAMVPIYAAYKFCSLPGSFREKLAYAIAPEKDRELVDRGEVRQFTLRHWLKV
compound,measurement,setting,value
"c1ccc2cc([C@]34CNC[C@H]3C4)ccc2c1 [(1R,5S)-1-(naphthalen-2-yl)-3-azabicyclo[3.1.0]hexane]",potency towards dopamine reuptake (DA) relative to norepinephrine reuptake (NE),[1],one-sixth as much
same,potency towards serotonin reuptake (5-HT) relative to norepinephrine reuptake (NE),[2],one-fourteenth as much
